The structures appear in SMILES notation.

The results in this text go back to ChEMBL document CHEMBL5143695, “Benzobis(imidazole) derivatives as STAT3 signal inhibitors with antitumor activity” (Bioorg Med Chem, 2022).

A short description of data set [1]: Inhibition of IL-6/JAK/STAT3 signalling pathway in HEK-blue IL-6 cells incubated for 16 hrs by SEAP reporter gene based QUANTI- blue assay. The format is cell-based. To be noted: Homo sapiens, HEK-Blue IL-6, 16 h. (In general: In a reporter assay the amount or activity of a reporter protein is the signal.)
Data set [2] is described as follows: Cytotoxicity against HEK-Blue IL-6 cells. The data set is classed as toxicity, cell-based. To be noted: human.
The subject of data set [3] is HepG2. The data set is described as follows: Antitumor activity against human HepG2 cells assessed as reduction in cell viability incubated for 72 hrs by MTT assay. The format is functional, cell-based. To be noted: HepG2, 72 h.
Another data set deals with ECa-109 cell line. Kind of data set: Antitumor activity against human EC109 cells assessed as reduction in cell viability incubated for 72 hrs by MTT assay. The format is functional, cell-based. To be noted: ECa-109, 72 h. On the technique in general: Formazan colour is commonly taken as a measure of viable cells.
Data set [4] relates to HepG2. Kind of data set: Antitumor activity against human HepG2 cells xenografted in BALB/c athymic nude mouse assessed as tumor growth inhibition at 60 mg/kg, po administered daily for 24 days relative to control. To be noted: HepG2, 576 h, time 24 day, read-out: TGI. The format is functional. For orientation: In xenograft studies the graft and the host belong to different species.

Data set [5] can be described thus: Toxicity in BALB/c athymic nude mouse xenografted with human HepG2 cells assessed as decrease in body weight at 60 mg/kg, po administered daily for 24 days. The format is organism-based. To be noted: in vivo, 576 h, time 24 day.

Consider `CCn1c(-c2cccc(F)c2)nc2cc3nc(-c4cccc(F)c4)n(CC)c3cc21`, for which the IC50 in data set [1] and in data set [2] was more than 10 µM each time.

With `CCCn1c(C2CCC2)nc2cc3nc(C4CCC4)n(CCC)c3cc21`, the IC50 in data set [1] and in data set [2] was more than 10 µM throughout.

Turning to `CCCn1c(-c2ccc[nH]2)nc2cc3nc(-c4ccc[nH]4)n(CCC)c3cc21`, the IC50 in data set [1] and in data set [2] was more than 10 µM throughout.

Turning to `CCCn1c(-c2ccc(C(F)(F)F)cc2)nc2cc3nc(-c4ccc(C(F)(F)F)cc4)n(CCC)c3cc21`, the IC50 in data set [1] and in data set [2] was more than 10 µM throughout.

Take `CCCn1c(-c2cccc3ccccc23)nc2cc3nc(-c4cccc5ccccc45)n(CCC)c3cc21`: the IC50 (commonly the concentration at which inhibition is half-maximal) in data set [1] was 9.5 µM; in data set [2] it was more than 10 µM.

Regarding `CCCn1c(-c2cccc(C(=O)OC)c2)nc2cc3nc(-c4cccc(C(=O)OC)c4)n(CCC)c3cc21`, the results for the 50% inhibitory concentration (IC50) in data set [1] and in data set [2] were 8.89 µM and more than 10 µM, respectively.

In the case of `CCCn1c(C2CCOC2)nc2cc3nc(C4CCOC4)n(CCC)c3cc21` (stereo unspecified), the IC50 in data set [1] and in data set [2] was more than 10 µM in each case.

In the case of `CCCn1c(-c2ccc(F)c(C(F)(F)F)c2)nc2cc3nc(-c4ccc(F)c(C(F)(F)F)c4)n(CCC)c3cc21`, the IC50 in data set [1] and in data set [2] was more than 10 µM each time.

With `CCCn1c(-c2cccc(Br)c2)nc2cc3nc(-c4cccc(Br)c4)n(CCC)c3cc21`, the IC50 in data set [1] and in data set [2] was more than 10 µM in each case.

`CCCn1c(-c2ccc3cc[nH]c3c2)nc2cc3nc(-c4ccc5cc[nH]c5c4)n(CCC)c3cc21`: the IC50 in data set [1] and in data set [2] was more than 10 µM in each case.

With `CCCn1c(-c2ccccc2F)nc2cc3nc(-c4ccccc4F)n(CCC)c3cc21`, the results for the IC50 in data set [1] and in data set [2] were 10.3 µM and more than 10 µM, respectively.

Consider `C[C@H]1COC2=C1C(=O)C(=O)c1c2ccc2c1CCCC2(C)C` [CRYPTOTANSHINONE], for which the IC50 in the data set with HepG2 [3] was 29.2 µM; in the data set with ECa-109 cell line, 5.01 µM; in data set [1] it was 6.61 µM; in data set [2] it was more than 10 µM.

As for `CNC(=O)c1cc(Oc2ccc(NC(=O)Nc3ccc(Cl)c(C(F)(F)F)c3)cc2)ccn1` [SORAFENIB], the inhibition in vivo at 60 mg/kg in the data set on HepG2 [4] was found to be 88.4%. For the same molecule, in data set [5], the Activity entry was “Toxic”.

For the molecule `CCCn1c(-c2cc(OC)c(OC)c(OC)c2)nc2cc3nc(-c4cc(OC)c(OC)c(OC)c4)n(CCC)c3cc21`, the concentration for half-maximal inhibition (IC50) in data set [1] and in data set [2] was more than 10 µM throughout.

For `CCCn1c(-c2cc(C(C)(C)C)cc(C(C)(C)C)c2)nc2cc3nc(-c4cc(C(C)(C)C)cc(C(C)(C)C)c4)n(CCC)c3cc21`, the IC50 in data set [1] and in data set [2] was more than 10 µM throughout.

For the molecule `CCCn1c(-c2ccc(C)o2)nc2cc3nc(-c4ccc(C)o4)n(CCC)c3cc21`, the IC50 in data set [1] and in data set [2] was more than 10 µM each time.

For the molecule `CCCn1c(-c2cccc(C)c2)nc2cc3nc(-c4cccc(C)c4)n(CCC)c3cc21`, the IC50 in the data set on HepG2 [3] was 6.12 µM; in the data set with ECa-109 cell line it was more than 20 µM; in data set [1] it was 2 µM; in data set [2], more than 10 µM.

Regarding `CCCn1c(-c2cc(F)cc(F)c2)nc2cc3nc(-c4cc(F)cc(F)c4)n(CCC)c3cc21`, the IC50 in data set [1] and in data set [2] was more than 10 µM each time.

Turning to `CCCn1c(-c2nccs2)nc2cc3nc(-c4nccs4)n(CCC)c3cc21`, the IC50 in data set [1] and in data set [2] was more than 10 µM in each case.

Consider `CCCn1c(-c2cc(OC)cc(OC)c2)nc2cc3nc(-c4cc(OC)cc(OC)c4)n(CCC)c3cc21`, for which the IC50 in data set [1] and in data set [2] was more than 10 µM each time.

With `CCCn1c(C2CCOCC2)nc2cc3nc(C4CCOCC4)n(CCC)c3cc21`, the IC50 in data set [1] and in data set [2] was more than 10 µM throughout.

With `CCCn1c(-c2ccc(C)nc2)nc2cc3nc(-c4ccc(C)nc4)n(CCC)c3cc21`, the half-inhibitory concentration (IC50) in data set [1] and in data set [2] was more than 10 µM throughout.

For the molecule `CCCn1c(-c2cccc(F)c2)nc2cc3nc(-c4cccc(F)c4)n(CCC)c3cc21`, the IC50 with HepG2 [3] was more than 20 µM; with ECa-109 cell line, more than 20 µM; in data set [1], 1.5 µM; in data set [2], more than 10 µM.

Consider `CCCCn1c(-c2cccc(F)c2)nc2cc3nc(-c4cccc(F)c4)n(CCCC)c3cc21`, for which the values for the IC50 in data set [1] and in data set [2] were 7.85 µM and more than 10 µM, respectively.

In the case of `CCCn1c(-c2cccc(C#N)c2)nc2cc3nc(-c4cccc(C#N)c4)n(CCC)c3cc21`, the IC50 in data set [1] was 6.7 µM; in data set [2], more than 10 µM.

As to `CCCn1c(-c2cncnc2)nc2cc3nc(-c4cncnc4)n(CCC)c3cc21`, the IC50 in data set [1] and in data set [2] was more than 10 µM throughout.

With `CCCn1c(-c2cccc(OC)c2)nc2cc3nc(-c4cccc(OC)c4)n(C4CCN(C)CC4)c3cc21`, the IC50 in data set [1] and in data set [2] was more than 10 µM each time.

As to `CCCn1c(C2CC2)nc2cc3nc(C4CC4)n(CCC)c3cc21`, the IC50 in data set [1] and in data set [2] was more than 10 µM each time.

Consider `CCCn1c(C2CCCCC2)nc2cc3nc(C4CCCCC4)n(CCC)c3cc21`, for which the values for the IC50 in data set [1] and in data set [2] were 8.11 µM and more than 10 µM, respectively.

`CCCn1c(-c2ccccc2)nc2cc3nc(-c4ccccc4)n(CCN(C)C)c3cc21`: the IC50 in data set [1] and in data set [2] was more than 10 µM throughout.

As for `CCCn1c(-c2ccccc2)nc2cc3nc(-c4ccccc4)n(CCC)c3cc21`, the IC50 in the data set on HepG2 [3] is 13.2 µM; in the data set on ECa-109 cell line, 12.6 µM; in data set [1], 7.21 µM; in data set [2], more than 10 µM.

Turning to `CCCn1c(-c2ccc(Cl)c(C(F)(F)F)c2)nc2cc3nc(-c4ccc(Cl)c(C(F)(F)F)c4)n(CCC)c3cc21`, the IC50 in data set [1] and in data set [2] was more than 10 µM each time.

Turning to `CCCn1c(-c2cccc(OCC)c2)nc2cc3nc(-c4cccc(OCC)c4)n(CCC)c3cc21`, the IC50 in data set [1] and in data set [2] was more than 10 µM each time.

Regarding `CCCn1c(-c2cccc(Cl)c2)nc2cc3nc(-c4cccc(Cl)c4)n(CCC)c3cc21`, the IC50 is 17.9 µM with HepG2 [3], more than 20 µM with ECa-109 cell line, 2.89 µM in data set [1] and more than 10 µM in data set [2].

Regarding `CCCn1c(-c2cccc(OC)c2)nc2cc3nc(-c4cccc(OC)c4)n(CCN(C)C)c3cc21`, the IC50 in data set [1] and in data set [2] was more than 10 µM throughout.

As for `CCCn1c(-c2cccn2C)nc2cc3nc(-c4cccn4C)n(CCC)c3cc21`, the IC50 in data set [1] and in data set [2] was more than 10 µM throughout.

Consider `CCCn1c(-c2cccc(O)c2)nc2cc3nc(-c4cccc(O)c4)n(CCC)c3cc21`, for which the IC50 is 10.2 µM in data set [1] and more than 10 µM in data set [2].

For `CCCn1c(-c2cccc(C(F)(F)F)c2)nc2cc3nc(-c4cccc(C(F)(F)F)c4)n(CCC)c3cc21`, the IC50 in the data set on HepG2 [3] is more than 20 µM; in the data set with ECa-109 cell line, more than 20 µM; in data set [1], 1.24 µM; in data set [2] it was more than 10 µM.

Consider `CC(C)Cn1c(-c2cccc(F)c2)nc2cc3nc(-c4cccc(F)c4)n(CC(C)C)c3cc21`, for which the IC50 in data set [1] and in data set [2] was more than 10 µM each time.

With `CCCn1c(-c2ccc(F)cc2)nc2cc3nc(-c4ccc(F)cc4)n(CCC)c3cc21`, the IC50 in data set [1] and in data set [2] was more than 10 µM in each case.

Regarding `Fc1cccc(-c2nc3cc4nc(-c5cccc(F)c5)n(C5CC5)c4cc3n2C2CC2)c1`, the IC50 in data set [1] and in data set [2] was more than 10 µM in each case.

Regarding `CCCn1c(-c2scc3ccccc23)nc2cc3nc(-c4scc5ccccc45)n(CCC)c3cc21`, the IC50 in data set [1] and in data set [2] was more than 10 µM each time.
